Measurements as given in ChEMBL document CHEMBL1201862, “PubChem BioAssay data set” (2004).
Activity calls are given as the source filed them.

Tests used:
Cytochrome P450 2D6 = Cytochrome P450 2D6 (Homo sapiens, UniProt P10635);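 also: CYP2D6 member of a cytochrome P450 panel assay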
[1] = Luminescence Cell-Based Dose Confirmation HTS to Identify Activators of 5'UTR Stem-Loop Driven Alpha-Synuclein mRNA Translation in H4 Neuroglioblastoma Cells. [Related pubchem assays: 1829 (Project Summary), 1814 (Primary HTS)]; type: functional
[2] = Luminescence Cell-Based Dose Response HTS to Identify Activators of Luciferase Translation or Activity in H4 […] Cells. [Related pubchem assays: 1829 (Project Summary), 1814 (Primary HTS)]; type: functional
H4 = test: Luminescence Cell-Based Dose Response HTS to Identify Activators of 5'UTR Stem-Loop Driven Prion Protein mRNA Translation in H4 Neuroglioblastoma Cells. [Related pubchem assays: 1829 (Project Summary), 1814 (Primary HTS)]; type: functional; details: Homo sapiens
[3] = target: T1, Corticotropin-releasing factor receptor 2/Corticotropin-releasing factor-binding protein (Homo sapiens, UniProt P24387+Q13324); test: activators of CRF receptor 2 with binding protein – uHTS hits, confirmation (AID 602473); type: functional; details: read-out: EC50_Mean
T1 sequence (Q13324 whole entry): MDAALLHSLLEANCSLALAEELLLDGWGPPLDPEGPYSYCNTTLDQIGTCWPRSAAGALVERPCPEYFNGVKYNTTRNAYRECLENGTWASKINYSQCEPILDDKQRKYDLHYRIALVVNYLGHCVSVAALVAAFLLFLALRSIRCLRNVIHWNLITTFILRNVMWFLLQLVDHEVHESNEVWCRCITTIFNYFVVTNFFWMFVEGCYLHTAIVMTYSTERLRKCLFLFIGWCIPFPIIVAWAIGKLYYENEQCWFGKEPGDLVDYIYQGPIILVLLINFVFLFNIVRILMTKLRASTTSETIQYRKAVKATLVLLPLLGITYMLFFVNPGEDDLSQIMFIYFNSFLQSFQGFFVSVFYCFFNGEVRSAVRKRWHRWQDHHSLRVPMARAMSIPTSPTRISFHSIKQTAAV
T1 sequence (P24387 whole entry): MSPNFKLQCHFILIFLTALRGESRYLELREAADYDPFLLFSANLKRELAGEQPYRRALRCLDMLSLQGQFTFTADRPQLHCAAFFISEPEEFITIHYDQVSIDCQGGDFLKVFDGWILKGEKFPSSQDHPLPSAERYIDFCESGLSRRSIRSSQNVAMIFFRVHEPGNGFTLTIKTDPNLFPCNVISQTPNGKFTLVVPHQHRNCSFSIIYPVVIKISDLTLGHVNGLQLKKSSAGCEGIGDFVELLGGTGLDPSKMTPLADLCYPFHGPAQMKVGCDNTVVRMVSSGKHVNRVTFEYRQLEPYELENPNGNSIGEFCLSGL

[4] = target: T1, Corticotropin-releasing factor receptor 2/Corticotropin-releasing factor-binding protein; test: Dose Response confirmation of uHTS hits for small molecule antagonists of the CRF-binding protein and CRF-R2 receptor complex.; type: functional; details: read-out: IC50_Mean
Cytochrome P450 2C9 = Cytochrome P450 2C9 (Homo sapiens, UniProt P11712)
Cytochrome P450 1A2 = target: T2, Cytochrome P450 1A2 (Homo sapiens, UniProt P05177);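 also: PubChem cytochrome P450 panel assay, CYP1A2 panel member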
T2 sequence (P05177 whole entry): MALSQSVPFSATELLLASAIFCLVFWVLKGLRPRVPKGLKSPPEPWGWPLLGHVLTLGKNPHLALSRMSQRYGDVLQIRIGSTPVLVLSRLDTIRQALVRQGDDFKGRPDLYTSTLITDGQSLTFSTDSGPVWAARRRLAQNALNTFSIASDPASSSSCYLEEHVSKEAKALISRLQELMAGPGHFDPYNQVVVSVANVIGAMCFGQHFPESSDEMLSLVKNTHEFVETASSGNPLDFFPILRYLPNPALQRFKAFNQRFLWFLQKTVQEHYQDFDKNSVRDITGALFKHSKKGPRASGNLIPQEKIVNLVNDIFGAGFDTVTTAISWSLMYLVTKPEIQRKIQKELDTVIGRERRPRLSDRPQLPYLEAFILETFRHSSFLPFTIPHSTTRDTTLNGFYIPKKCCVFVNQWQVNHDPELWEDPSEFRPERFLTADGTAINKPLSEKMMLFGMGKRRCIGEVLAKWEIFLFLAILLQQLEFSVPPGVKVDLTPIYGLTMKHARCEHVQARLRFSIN

Cytochrome P450 2C19 = Cytochrome P450 2C19 (Homo sapiens, UniProt P33261); test: Cytochrome panel assay with activity outcomes. Panel member name: p450-cyp2c19 Compounds with AC50 equal or less than 10 uM are considered active; type: functional
Chain of Cytochrome P450 2C19 (P33261 whole entry): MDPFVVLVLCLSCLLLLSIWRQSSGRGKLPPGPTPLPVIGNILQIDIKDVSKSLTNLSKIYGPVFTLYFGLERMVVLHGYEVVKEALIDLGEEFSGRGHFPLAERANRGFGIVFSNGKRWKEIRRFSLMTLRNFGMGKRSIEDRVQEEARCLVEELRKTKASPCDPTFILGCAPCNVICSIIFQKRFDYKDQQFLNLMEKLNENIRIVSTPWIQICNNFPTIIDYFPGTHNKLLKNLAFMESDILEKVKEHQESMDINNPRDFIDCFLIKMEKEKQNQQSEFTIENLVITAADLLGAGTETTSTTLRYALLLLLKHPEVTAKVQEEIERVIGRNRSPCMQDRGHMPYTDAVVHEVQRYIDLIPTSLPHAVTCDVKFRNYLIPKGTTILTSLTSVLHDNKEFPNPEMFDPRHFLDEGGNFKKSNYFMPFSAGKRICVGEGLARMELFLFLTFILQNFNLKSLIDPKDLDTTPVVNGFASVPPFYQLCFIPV

Chain of Cytochrome P450 2C9 (P11712 whole entry): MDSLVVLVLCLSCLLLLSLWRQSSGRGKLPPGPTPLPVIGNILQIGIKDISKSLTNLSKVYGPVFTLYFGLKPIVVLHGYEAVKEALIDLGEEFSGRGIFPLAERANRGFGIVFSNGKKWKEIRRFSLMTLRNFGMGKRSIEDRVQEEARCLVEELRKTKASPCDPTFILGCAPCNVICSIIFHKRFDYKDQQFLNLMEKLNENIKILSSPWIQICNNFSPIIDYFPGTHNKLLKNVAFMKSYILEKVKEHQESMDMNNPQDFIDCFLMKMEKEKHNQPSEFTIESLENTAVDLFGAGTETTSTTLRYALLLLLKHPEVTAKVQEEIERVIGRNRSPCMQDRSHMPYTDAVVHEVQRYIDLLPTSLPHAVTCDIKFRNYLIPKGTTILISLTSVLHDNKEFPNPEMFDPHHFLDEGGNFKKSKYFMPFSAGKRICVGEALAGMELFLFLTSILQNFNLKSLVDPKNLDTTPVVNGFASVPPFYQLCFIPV
Chain of Cytochrome P450 2D6 (P10635 whole entry): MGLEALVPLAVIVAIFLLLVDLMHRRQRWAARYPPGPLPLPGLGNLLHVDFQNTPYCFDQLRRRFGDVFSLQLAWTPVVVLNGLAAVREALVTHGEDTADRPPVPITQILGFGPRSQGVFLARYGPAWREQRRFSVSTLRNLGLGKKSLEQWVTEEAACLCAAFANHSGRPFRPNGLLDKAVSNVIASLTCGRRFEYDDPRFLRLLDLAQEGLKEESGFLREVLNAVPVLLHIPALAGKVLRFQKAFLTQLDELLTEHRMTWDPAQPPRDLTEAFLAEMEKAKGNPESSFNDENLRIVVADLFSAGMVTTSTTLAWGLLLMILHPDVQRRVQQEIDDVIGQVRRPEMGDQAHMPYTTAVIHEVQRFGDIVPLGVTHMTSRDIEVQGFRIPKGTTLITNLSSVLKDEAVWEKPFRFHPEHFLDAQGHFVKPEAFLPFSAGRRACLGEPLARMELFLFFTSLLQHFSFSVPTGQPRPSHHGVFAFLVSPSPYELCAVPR

O=C(CSc1nc2ccccc2c(=O)n1NC(=O)Cc1ccccc1)NCc1ccccc1Cl
AC50 (Cytochrome P450 2D6): 2.82 µM (inconclusive)

CC(=O)c1ccc(N(C(=O)Cn2nnc3ccccc32)C(C(=O)NCc2ccccc2)c2ccccn2)cc1 (configuration not stated)
EC50 [1]: > 120 µM (not active)
EC50 [2]: 8.14 µM (active)
EC50 (H4): > 120 µM (not active)

COc1ccc(CNC(=O)CN2CCN(S(=O)(=O)c3cc(Br)ccc3Br)CC2)cc1OC
EC50 [3]: > 53 µM (inactive)
IC50 [4]: > 47.1 µM (inactive)

CC(N=C1NS(=O)(=O)c2ccccc21)C(=O)N1CCc2ccccc2C1 (configuration not stated)
EC50 [3]: > 53 µM (inactive)
IC50 [4]: > 47.1 µM (inactive)

C=CC[C@@H]1C=C[C@H](Oc2ccc(C)cc2)[C@H](COC(=O)NCc2cccc3ccccc23)O1
AC50 (Cytochrome P450 2D6): 7.94 µM (inconclusive)
AC50 (Cytochrome P450 2C9): 3.98 µM (inconclusive)

Cc1cc2c(nc1C)CCCCN2C[C@H](O)CN1CCCc2nc(-c3ccc(Br)cc3)ccc21
AC50 (Cytochrome P450 2D6): 3.16 µM (inconclusive)
AC50 (Cytochrome P450 2C9): 3.98 µM (inconclusive)

O=C(CSCc1cccc(F)c1)N1CCN(c2ccccc2)CC1
EC50 [1]: 0.47 µM (active)
EC50 [2]: 6.73 µM (active)
EC50 (H4): > 120 µM (not active)

CCC(=C(CC)c1ccc(O)cc1)c1ccc(O)cc1 [DIETHYLSTILBESTROL]
AC50 (Cytochrome P450 2D6): 15.8 µM (inconclusive)
AC50 (Cytochrome P450 1A2): 15.8 µM (active)
AC50 (Cytochrome P450 2C19; read-out: AC50): 15.8 µM (inconclusive)
AC50 (Cytochrome P450 2C9): 12.6 µM (active)

O=C(/C=C/c1ccccc1)NNC(=O)c1cccnc1
AC50 (Cytochrome P450 2C19; read-out: AC50): 31.6 µM (inconclusive)
AC50 (Cytochrome P450 2C9): 7.08 µM (inconclusive)

Cc1ccc(S(=O)(=O)NN=C(S)Nc2cccc(F)c2)cc1
EC50 [3]: > 53 µM (inactive)
IC50 [4]: > 47.1 µM (inactive)

Cc1cc(NC(=O)CSc2nc3c(C)cccc3cc2C#N)no1
EC50 [1]: 47.9 µM (active)
EC50 [2]: > 120 µM (not active)
EC50 (H4): 16.1 µM (active)

Nc1c(C(=O)N2CCCCCC2)oc2ccccc12
EC50 [3]: > 53 µM (inactive)
IC50 [4]: > 47.1 µM (inactive)

COC(=O)C1CSc2[nH]c(=O)sc2C1c1ccc(O)c(OC)c1 (configuration not stated)
EC50 [3]: > 53 µM (inactive)
IC50 [4]: > 47.1 µM (inactive)

Cc1ccccc1N(CC(=O)N1CCN(Cc2ccccc2)CC1)S(C)(=O)=O
EC50 [3]: > 53 µM (inactive)
IC50 [4]: > 47.1 µM (inactive)

Nn1c(SCc2ccccc2)nnc1C1CCCCC1
EC50 [1]: 25.5 µM (active)
EC50 [2]: 10.6 µM (active)
EC50 (H4): 21 µM (active)

COc1cccc(Cn2c(=O)c(-c3ccc(Cl)cc3)nc3cnc(OC)nc32)c1
AC50 (Cytochrome P450 2C19; read-out: AC50): 1.26 µM (inconclusive)
AC50 (Cytochrome P450 2C9): 7.94 µM (inconclusive)

Cc1ccc(Oc2ccccc2/C=C2\SC(=O)N(C)C2=O)cc1
AC50 (Cytochrome P450 2D6): 8.91 µM (inconclusive)

Clc1ccc(-c2csc(N3CCC(c4ccccc4)C3)n2)cc1 (configuration not stated)
EC50 [1]: 18.5 µM (active)
EC50 [2]: 25.7 µM (active)
EC50 (H4): 31.5 µM (active)

CCCCCC/C(C)=C1/SC(=S)NC1=O
AC50 (Cytochrome P450 2D6): 28.2 µM (inconclusive)

COc1ccc(N2CCN(CCCNC(=O)CN3CCN(Cc4ccccc4C)C3=O)CC2)cc1
EC50 [3]: > 53 µM (inactive)
IC50 [4]: > 47.1 µM (inactive)

COC(=O)[C@@]1(Cc2ccc(OC)cc2)[C@H]2c3cc(C(=O)N4CCCC4)n(Cc4c(CO)ncc(C)c4O)c3C[C@H]2CN1C(=O)c1ccccc1
AC50 (Cytochrome P450 2D6): 20 µM (inconclusive)
AC50 (Cytochrome P450 1A2): 25.1 µM (inconclusive)

O=C(NCC1CCCO1)C(c1cccnc1)N(C(=O)Cc1cccs1)c1ccccc1 (configuration not stated)
AC50 (Cytochrome P450 2D6): 15.8 µM (inconclusive)
AC50 (Cytochrome P450 2C19; read-out: AC50): 17.8 µM (inconclusive)
AC50 (Cytochrome P450 2C9): 15.8 µM (inconclusive)

Cc1cc(OCC(=O)C(C)(C)C)c2c(C)c(C)c(=O)oc2c1
EC50 [3]: > 53 µM (inactive)
IC50 [4]: > 47.1 µM (inactive)

CSc1ccccc1NC(=O)c1cc(-c2cccs2)on1
EC50 [1]: 55.7 µM (active)
EC50 [2]: > 120 µM (not active)
EC50 (H4): 17.9 µM (active)

COC(=O)c1ccc(C2OCC(C)(C)CO2)cc1
EC50 [1]: > 120 µM (not active)
EC50 [2]: 35.1 µM (active)
EC50 (H4): 24.9 µM (active)

CN(Cc1ccccc1)C(=O)c1cccc(NC(=O)Cc2ccc(NC(=O)C3CCCN(C(=O)CCc4ccccc4)C3)cc2)c1 (configuration not stated)
EC50 [3]: > 53 µM (inactive)
IC50 [4]: > 47.1 µM (inactive)

Cc1noc(C)c1-c1nc(N2CCN(C)CC2)c2ccccc2n1
AC50 (Cytochrome P450 2D6): 39.8 µM (inconclusive)

CCOc1ccccc1NC(=O)C1CCC(=O)N1S(=O)(=O)c1ccc(C)cc1 (configuration not stated)
EC50 [3]: > 53 µM (inactive)
IC50 [4]: > 47.1 µM (inactive)

O=C(CSc1nnc(Cn2nnc3ccccc32)o1)Nc1cccc(Cl)c1
AC50 (Cytochrome P450 2C19; read-out: AC50): 22.4 µM (inconclusive)
AC50 (Cytochrome P450 2C9): 15.8 µM (inconclusive)

O=C(Nc1ccccc1)N1CCCC2(CCN(C(=O)c3csnn3)CC2)C1
AC50 (Cytochrome P450 2D6): 39.8 µM (inconclusive)
AC50 (Cytochrome P450 1A2): 25.1 µM (inconclusive)
AC50 (Cytochrome P450 2C19; read-out: AC50): 3.98 µM (inconclusive)

O=C(Nc1ccccc1N1CCOCC1)c1ccc([N+](=O)[O-])cc1
AC50 (Cytochrome P450 2D6): 15.8 µM (inconclusive)
AC50 (Cytochrome P450 2C9): 10 µM (inconclusive)

Cc1ccc(N/C=C(/C#N)c2ccsc2)cc1
EC50 [1]: 46.7 µM (active)
EC50 [2]: 52.3 µM (active)
EC50 (H4): 68.4 µM (active)

Cc1cc(NC(=O)Cn2nc3c(cc2=O)CCCC3)ccc1Br
EC50 [3]: > 53 µM (inactive)
IC50 [4]: > 47.1 µM (inactive)

C/C(=N/C1CC1)C1=C(O)c2ccccc2C1=O
EC50 [1]: > 120 µM (not active)
EC50 [2]: 20.2 µM (active)
EC50 (H4): 6.75 µM (active)

O=[N+]([O-])c1cccc(/N=C/C=C(/O)c2ccco2)c1
EC50 [1]: 1.14 µM (active)
EC50 [2]: 17 µM (active)
EC50 (H4): > 120 µM (not active)

CC1=CC(C)(C(Cl)(Cl)Cl)C(C)=CC1=NO (configuration not stated)
EC50 [3]: > 53 µM (inactive)
IC50 [4]: > 47.1 µM (inactive)

Cc1ccc(Oc2nn[nH]n2)cc1
EC50 [1]: > 120 µM (not active)
EC50 [2]: > 120 µM (not active)
EC50 (H4): > 120 µM (not active)
AC50 (Cytochrome P450 2C19): inconclusive
AC50 (Cytochrome P450 2C9): 7.08 µM (inconclusive)
